pIC50: −log10 of the molar value.
Assays:
[1] = tested on: 12 human cancer cell lines (U-373MG, U-87MG, SW1088, A549, A-427, HCT-15, LoVo, T-47D, MCF7, J82, T24, PC-3); assay: Cytotoxic activity on tumour cell lines in culture (MTT test); type: cell-based; details: mean IC50 calculated from the individual cytotoxic activities on each of the 12 tumour lines, 72 hours incubation
Protocol: 1—Cytotoxic Activity on Tumour Cell Lines in Culture (MTT Test)
The influence of the compounds of formula (I) and of (Ia) on tumour cells was evaluated using the MTT calorimetric test (T. Mosman, J. Immunol. Methods, 1983; 65: 55-63, J. Carmichael et al., Cancer Res. 1987; 47: 936-942).
The principle of the MTT test is based on the mitochondrial reduction by metabolically active alive cells of the yellow-coloured product MTT (3-(4,5-dimethylthiazol-2-yl)-2,5-diphenyltetrazolium bromide) to a blue-coloured product, formazan. The amount of formazan thus obtained is directly proportional to the amount of live cells present in the culture well or wells. This amount of formazan is measured by spectrophotometry.
The cell lines are maintained in monolayer culture at 37° C. in stoppered culture dishes containing 25 MM HEPES MEM (Minimum Essential Medium) base medium. This medium is well suited to the growth of a range of varied diploid or primary mammalian cells. This medium is subsequently supplemented: […]
with an amount of 5% of FCS (Foetal Calf Serum) decomplemented at 56° C. for 1 hour, with 0.6 mg/ml of L-glutamine, with 200 IU/ml of penicillin, with 200 μg/ml of streptomycin, with 0.1 mg/ml of gentamicin.
The 12 human cancer cell lines which were used were obtained from the American Type Culture Collection (ATCC, Rockville, Md., USA). These 12 cell lines are:
U-373MG (ATCC code: HTB-17) and U-87MG (ATCC code: HTB-14), which are two glioblastomas, SW1088 (ATCC code: HTB-12) which is an astrocytoma, A549 (ATCC code: CCL-185) and A-427 (ATCC code: HTB-53), which are two non-small-cell lung cancers, HCT-15 (ATCC code: CCL-225) and LoVo (ATCC code: CCL-229), which are two colorectal cancers, T-47D (ATCC code: HTB-133) and MCF7 (ATCC code: HTB-22), which are two breast cancers, J82 (ATCC code: HTB-1) and T24 (ATCC code: […]), which are two bladder cancers, PC-3 (ATCC code: CRL-1435), which is a prostate cancer.
Experimentally: 100 μl of a cell suspension comprising 20 000 to 50 000 (depending on the cell type used) cells/ml of culture medium are inoculated in flat-bottomed 96-well multi-well plates and are incubated at 37° C. under an atmosphere comprising 5% of CO2 and 70% humidity. After incubating for 24 hours, the culture medium is replaced with 100 μl of fresh medium comprising either the various test compounds at concentrations varying from 10^−5 to 10^−10 M of the solvent used to dissolve the -test products (control condition). After incubating for 72 hours under the above conditions, the culture medium is replaced with 100 μl of a yellowish solution of MTT dissolved, in a proportion of 1 mg/ml, in RPMI 1640. The microplates are reincubated for 3 hours at 37° C. and then centrifuged for 10 minutes at 400 g. The yellowish MTT solution is removed and the blue formazan crystals formed at the cellular level are dissolved in 100 μl of DMSO. The microplates are subsequently agitated for 5 minutes. The intensity of the resulting blue coloration, and thus of the conversion of the yellow MTT product into blue formazan by the cells which are still alive at the end of the experiment, is quantified by spectrophotometry using a device of DYNATECH IMOASSAY SYSTEM type at wavelengths of 570 nm and 630 nm corresponding respectively to the maximum absorption wavelengths of formazan and to the background noise. Software built into the spectrophotometer calculates the mean optical density values and the standard deviation (Std. Dev.) and standard error of the mean (SEM) values.
The inhibitory activity on the cell growth of the compounds of formula (I) and (Ia) on the various tumour cell lines was measured in comparison with that of the natural product.

HI-MXT tumours = assay: In vivo antitumour activity, hormone-insensitive mouse mammary carcinoma MXT (HI-MXT), tumour growth; details: 5 mg/kg intraperitoneally; for Tumour area (expressed as %): decrease (−) or increase (+) in HI-MXT tumour area vs control on the 21st day after grafting, 6 administrations
Protocol: The tests were carried out on models of:
hormone-insensitive mouse mammary carcinoma MXT (HI-MXT),
The model of mouse mammary adenocarcinoma MXT of Watson C. et al. (Cancer Res., 1977; […]: 3344-48), grafted onto B6D2F1/Jico mice aged from 4 to 6 weeks, is derived from the mammary gland milk ducts. Initially hormone-sensitive (HS-MXT model), the differentiated tumour develops in the direction of an undifferentiated hormone-insensitive tumour (HI-MXT model). […] This is the case, for example, with cyclophosphamide, etoposide or adriamycin.
When the MTD value of a product was determined, its in vivo antitumour activity was characterized at the MTD/2, MTD/4 and MTD/8 doses on the models of mammary adenocarcinoma of mouse origin HS-MXT and of mouse mammary carcinoma HI-MXT and on the model of subcutaneous lymphoma L 1210.
In all the examples presented below, whatever the model, the control condition is represented by a batch of 9 or 15 mice to which is administered, for 3 consecutive weeks and at the rate of 3 administrations (Monday, Wednesday and Friday) per week, a volume of 0.2 ml of physiological saline comprising the solvent used to dissolve the various compounds of formula (I) and (Ia) used.
i)—The tumour growth was evaluated by measuring twice weekly (Monday and Friday) the area of the grafted HS-MXT, HI-MXT or L 1210 tumours. This area is calculated by multiplying the value of the two greatest perpendicular axes of the tumour. The value of these axes is measured using a sliding caliper.
The influence of the two products CRL 8293 and CRL 8294 on the growth of HI-MXT tumours will be presented below by way of example. Each batch of mice grafted with HI-MXT tumours relating to a given experimental condition comprises 15 animals.
The product CRL 8293 is administered intraperitoneally. The first injection of the product is carried out on the seventh day postgrafting (D7) at the rate of 3 injections per week (Monday, Wednesday and Friday) for 3 consecutive weeks and at a dose of 5 mg/kg.
The product CRL 8294 is administered intraperitoneally. The first injection of the product is carried out on the seventh day postgrafting (D7) at the rate of 3 injections per week (Monday, Wednesday and Friday) for 3 consecutive weeks and at a dose of 5 mg/kg.
The decreases (−) or the increases (+) in the area of the HI-MXT tumours induced with treatments 1 and 2 with respect to the control condition on the 21st day after the tumour grafting, i.e. after 6 administrations of the product CRL 8293 or of the product CRL 8294, are shown, as percentage, in the following Table II. 100% of the control animals are still alive on the 21st day postgrafting.

SMILES	pIC50 ([1]; Homo sapiens)	growth of the HI-MXT tumours (in words) (HI-MXT tumours)	Tumour area (expressed as %) (HI-MXT tumours) [%]	pIC50 [1]
O=C1c2cccnc2-c2nccc3ccnc1c23 [CRL 8293, 7H-Pyrido[4,3,2-de][1,10]phenanthroline-7-one]	5.90	significant decrease	−33	–
O=C1c2ncccc2-c2nccc3ccnc1c23 [CRL 8294, 7H-Pyrido[4,3,2-de][1,7phenanthroline-7-one]	–	significant decrease	−36	5.84

— patent US6809096B1, “Phenanthroline-7-one derivatives and their therapeutic uses” (Laboratoire L. Lafon, priority 1999, dated 2004)
